The target in one series is T1, CD73 (Homo sapiens, UniProt P21589).
T1 sequence (P21589 27-574): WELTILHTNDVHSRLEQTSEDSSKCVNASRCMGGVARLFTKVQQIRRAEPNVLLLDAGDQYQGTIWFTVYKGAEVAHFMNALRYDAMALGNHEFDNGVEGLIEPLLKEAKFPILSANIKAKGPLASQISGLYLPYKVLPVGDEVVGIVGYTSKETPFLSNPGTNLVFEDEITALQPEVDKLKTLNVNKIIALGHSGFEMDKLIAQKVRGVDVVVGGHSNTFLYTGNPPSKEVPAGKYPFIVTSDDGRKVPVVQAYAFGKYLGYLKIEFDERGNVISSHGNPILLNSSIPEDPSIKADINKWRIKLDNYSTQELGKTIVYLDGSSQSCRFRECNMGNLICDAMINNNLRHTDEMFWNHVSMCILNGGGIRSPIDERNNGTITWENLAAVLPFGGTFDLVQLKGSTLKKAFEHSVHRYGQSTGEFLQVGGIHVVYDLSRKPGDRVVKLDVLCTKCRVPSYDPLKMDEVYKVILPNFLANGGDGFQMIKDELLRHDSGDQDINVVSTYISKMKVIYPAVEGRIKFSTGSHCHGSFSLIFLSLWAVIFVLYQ

Another series in a line: Self-assembly in water. The settings on record: for diameter (width) of self-assembled nanofibers: TEM, pH 7.0, 2.0 wt %, direct self-assembly without enzyme; for appearance / state in water: pH 7.0, 2.0 wt % concentration, optical image, for 2 via pH adjustment. Format: physicochemical.

As to `O=C(Cc1ccc2ccccc2c1)N[C@H](Cc1ccccc1)C(=O)N[C@H](Cc1ccccc1)C(=O)N[C@H](CCCCNc1ncnc2c1ncn2[C@@H]1O[C@H](COP(=O)(O)O)[C@@H](O)[C@H]1O)C(=O)O` [compound 1, naphthalene-D-Phe-D-Phe-D-Lys(AMP)], the “hydrogel formation on adding CD73” value on CD73 (1 μg of CD73 added to 0.5 mL of 2 wt % solution, 37 °C, pH 7.0) is recorded as “hydrogel formation after three days”. Also, on CD73 (TEM, after CD73 treatment, pH 7.0, 2.0 wt %), the “diameter of nanofibers of the CD73-formed hydrogel” value came out at 8 ± 1 nm. Besides, in the series “Self-assembly in water”, the “diameter (width) of self-assembled nanofibers” value worked out at 8 ± 1 nm and the “appearance / state in water” value is “transparent solution”.
As for `O=C(Cc1ccc2ccccc2c1)N[C@H](Cc1ccccc1)C(=O)N[C@H](Cc1ccccc1)C(=O)N[C@H](CCCCNc1ncnc2c1ncn2[C@@H]1O[C@H](CO)[C@@H](O)[C@H]1O)C(=O)O` [compound 2, naphthalene-D-Phe-D-Phe-D-Lys(adenosine)], in “Self-assembly in water”, the “diameter (width) of self-assembled nanofibers” value was determined as 5 ± 1 nm and the “appearance / state in water” value is given as “transparent hydrogel”.

These data come from article PMC4369398 (Journal of colloid and interface science, 2014).
